Measurements from patent US12486267B2, “Imidazo[1,2-A]pyridine and [1,2,4]triazolo[1,5-A]pyridine derivatives as TLR9 inhibitors for the treatment of fibrosis” (BRISTOL-MYERS SQUIBB COMPANY, priority 2020, dated 2025).

Assays:
human TLR9 = molecular target: T1, human TLR9 (Homo sapiens, UniProt Q9NR96); test: TLR9 inhibition reporter assay (HEK-Blue cells, SEAP reporter); format: cell-based; conditions: HEK-Blue cells overexpressing human TLR9; stimulated with ODN2006 5 nM; 22 hour incubation; SEAP readout
T1 sequence (Q9NR96 26-1032): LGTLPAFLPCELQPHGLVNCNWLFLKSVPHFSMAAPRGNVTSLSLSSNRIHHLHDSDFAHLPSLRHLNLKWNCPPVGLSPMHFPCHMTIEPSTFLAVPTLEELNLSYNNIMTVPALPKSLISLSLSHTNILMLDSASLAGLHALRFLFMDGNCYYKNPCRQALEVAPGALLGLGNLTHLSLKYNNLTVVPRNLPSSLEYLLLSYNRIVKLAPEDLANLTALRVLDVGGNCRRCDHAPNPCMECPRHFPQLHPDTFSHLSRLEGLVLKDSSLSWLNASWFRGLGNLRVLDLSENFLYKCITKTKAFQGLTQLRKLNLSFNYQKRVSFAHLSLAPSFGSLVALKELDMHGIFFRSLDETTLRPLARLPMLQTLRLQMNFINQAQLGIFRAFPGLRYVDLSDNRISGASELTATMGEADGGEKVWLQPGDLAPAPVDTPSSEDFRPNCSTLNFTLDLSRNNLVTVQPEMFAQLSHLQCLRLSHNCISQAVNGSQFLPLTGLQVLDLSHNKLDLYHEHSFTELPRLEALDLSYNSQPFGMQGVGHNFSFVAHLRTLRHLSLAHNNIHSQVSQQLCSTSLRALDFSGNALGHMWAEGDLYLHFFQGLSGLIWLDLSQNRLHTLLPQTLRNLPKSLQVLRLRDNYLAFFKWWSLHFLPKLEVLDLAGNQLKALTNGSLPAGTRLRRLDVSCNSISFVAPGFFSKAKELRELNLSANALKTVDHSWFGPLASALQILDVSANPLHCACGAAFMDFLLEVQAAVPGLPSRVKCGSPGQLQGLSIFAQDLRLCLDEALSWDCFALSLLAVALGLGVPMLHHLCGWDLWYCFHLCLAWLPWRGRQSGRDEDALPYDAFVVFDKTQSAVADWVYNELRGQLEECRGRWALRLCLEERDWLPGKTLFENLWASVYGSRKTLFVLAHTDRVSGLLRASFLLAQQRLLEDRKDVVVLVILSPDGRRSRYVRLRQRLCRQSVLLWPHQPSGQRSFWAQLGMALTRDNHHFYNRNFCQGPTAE
Procedure: (§1) TLR7/8/9 Inhibition Reporter Assays
(§2) HEK-Blue™-cells (Invivogen) overexpressing human TLR7, TLR8 or TLR9 receptors were used for screening inhibitors of these receptors using an inducible SEAP (secreted embryonic alkaline phosphatase) reporter gene under the control of the […] minimal promoter fused to five NF-κB and AP-1-binding sites. Briefly, cells are seeded into Greiner 384 well plates (15000 cells per well for TLR7, 20,000 for TLR8 and 25,000 for TLR9) and then treated with test compounds in DMSO to yield a final dose response concentration range of 0.05 nM-50 μM. After a 30 minute compound pre-treatment at room temperature, the cells are then stimulated with a TLR7 ligand (gardiquimod at a final concentration of 7.5 μM), TLR8 ligand (R848 at a final concentration of 15.9 μM) or TLR9 ligand (ODN2006 at a final concentration of 5 nM) to activate NF-κB and AP-1 which induce the production of SEAP. After a 22 hour incubation at 37° C., 5% CO2, SEAP levels are determined with the addition of HEK-Blue™ Detection reagent (Invivogen), a cell culture medium that allows for detection of SEAP, according to manufacturer's specifications. The percent inhibition is determined as the % reduction in the HEK-Blue signal present in wells treated with agonist plus DMSO alone compared to wells treated with a known inhibitor.

human TLR7 = molecular target: T2, human TLR7 (Homo sapiens, UniProt Q9NYK1); test: TLR7 inhibition reporter assay (HEK-Blue cells, SEAP reporter); format: cell-based; conditions: HEK-Blue cells overexpressing human TLR7; stimulated with gardiquimod 7.5 μM; 22 hour incubation; SEAP readout
T2 sequence (Q9NYK1 27-1049): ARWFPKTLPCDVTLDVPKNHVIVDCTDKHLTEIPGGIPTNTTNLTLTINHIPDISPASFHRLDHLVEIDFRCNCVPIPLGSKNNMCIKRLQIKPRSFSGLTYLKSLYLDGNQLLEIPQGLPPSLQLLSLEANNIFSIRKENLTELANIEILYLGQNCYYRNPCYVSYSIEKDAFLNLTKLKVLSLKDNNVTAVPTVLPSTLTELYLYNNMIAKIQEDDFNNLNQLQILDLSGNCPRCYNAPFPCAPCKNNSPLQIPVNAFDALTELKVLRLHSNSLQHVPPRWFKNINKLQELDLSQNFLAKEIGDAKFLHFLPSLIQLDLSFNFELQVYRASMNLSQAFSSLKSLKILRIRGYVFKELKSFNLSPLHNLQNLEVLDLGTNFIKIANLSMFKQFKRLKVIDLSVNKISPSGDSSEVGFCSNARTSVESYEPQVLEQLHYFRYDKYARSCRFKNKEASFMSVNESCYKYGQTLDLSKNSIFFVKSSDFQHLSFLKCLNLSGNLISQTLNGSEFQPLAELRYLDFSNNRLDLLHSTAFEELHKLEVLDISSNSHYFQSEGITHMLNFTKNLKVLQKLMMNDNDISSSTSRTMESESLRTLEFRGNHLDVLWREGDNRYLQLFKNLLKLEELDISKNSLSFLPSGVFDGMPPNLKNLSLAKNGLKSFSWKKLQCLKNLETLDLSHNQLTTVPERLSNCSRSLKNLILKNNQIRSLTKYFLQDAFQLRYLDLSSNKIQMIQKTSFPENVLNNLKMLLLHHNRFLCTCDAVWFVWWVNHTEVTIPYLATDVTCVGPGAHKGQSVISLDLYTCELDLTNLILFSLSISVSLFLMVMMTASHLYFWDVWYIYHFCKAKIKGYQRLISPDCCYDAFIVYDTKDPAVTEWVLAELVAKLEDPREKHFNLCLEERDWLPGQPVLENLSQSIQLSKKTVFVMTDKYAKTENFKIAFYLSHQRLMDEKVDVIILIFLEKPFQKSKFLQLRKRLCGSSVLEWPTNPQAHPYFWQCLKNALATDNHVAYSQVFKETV
Procedure: as §1, §2

## COCCN1CCN(c2ccc(-c3cc(C)c4nc(-c5ccc(OC)c(OC)c5)cn4c3)cc2)CC1 [Example 98, 2-(3,4-dimethoxyphenyl)-6-(4-(4-(2-methoxyethyl)piperazin-1-yl)phenyl)-8-methylimidazo[1,2-a]pyridine]
Human TLR9
  IC50: 456 nM
Human TLR7
  IC50: 1000 nM

## Cc1cc(C2CCN(C3CC4CCC(C3)N4C(C)C)CC2)cn2cc(-c3ccc(S(C)(=O)=O)cc3)nc12 (single isomer, unassigned) [Example 62, 6-(1-(8-isopropyl-8-azabicyclo[3.2.1]octan-3-yl)piperidin-4-yl)-8-methyl-2-(4-(methylsulfonyl)phenyl)imidazo[1,2-a]pyridine]
Human TLR9
  IC50: 98 nM

## COc1ccc(-c2nc3n(n2)CC(C2CCC(N4CCN(C(C)C)CC4)CC2)CC3C)cc1OC (stereo not drawn) [Example 143, 2-(3,4-dimethoxyphenyl)-6-(4-(4-isopropylpiperazin-1-yl)cyclohexyl)-8-methyl-5,6,7,8-tetrahydro-[1,2,4]triazolo[1,5-a]pyridine]
Human TLR9
  IC50: 7330 nM

## CC(C)CN1C2CCC1CC(N1CCC([C@@H]3CCc4nc(-c5ccc(S(C)(=O)=O)cc5)cn4C3)CC1)C2 (single isomer, unassigned) [Example 81]
Human TLR9
  IC50: 9.1 nM

## CC(C)CN1CCC(N2CCC(c3ccn4cc(-c5ccc(S(C)(=O)=O)cc5)nc4c3F)CC2)CC1 [Example 74, 8-fluoro-7-(1′-isobutyl-[1,4′-bipiperidin]-4-yl)-2-(4-(methylsulfonyl)phenyl)imidazo[1,2-a]pyridine]
Human TLR9
  IC50: 55 nM
Human TLR7
  IC50: 2400 nM

## Cc1cc(C2CCN(C3CC4CCC(C3)N4C3CCC3)CC2)cn2cc(-c3ccc(S(C)(=O)=O)cc3)nc12 (single isomer, unassigned) [Example 83, 6-(1-(8-cyclobutyl-8-azabicyclo[3.2.1]octan-3-yl)piperidin-4-yl)-8-methyl-2-(4-(methylsulfonyl)phenyl)imidazo[1,2-a]pyridine]
Human TLR9
  IC50: 12 nM

## Cc1cc(C2CCN(C3CCN(CC4CCC4)CC3)CC2)cn2cc(-c3ccc(S(C)(=O)=O)cc3)nc12 [Example 93, 6-(1′-(cyclobutylmethyl)-[1,4′-bipiperidin]-4-yl)-8-methyl-2-(4-(methylsulfonyl)phenyl)imidazo[1,2-a]pyridine]
Human TLR9
  IC50: 83 nM

## COc1ccc(-c2nc3n(n2)CC(C2CC4CCC(C2)N4C2CCN(C(C)C)CC2)CC3)cc1OC (stereo not drawn) [Example 148, 2-(3,4-dimethoxyphenyl)-6-(8-(1-isopropylpiperidin-4-yl)-8-azabicyclo[3.2.1]octan-3-yl)-5,6,7,8-tetrahydro-[1,2,4]triazolo[1,5-a]pyridine]
Human TLR9
  IC50: 303 nM

## Cc1cc(C2CCN(C3CC4CCC(C3)N4CC(C)C)CC2)cn2cc(-c3ccc(S(C)(=O)=O)cc3)nc12 (single isomer, unassigned) [Example 85, 6-(1-(8-isobutyl-8-azabicyclo[3.2.1]octan-3-yl)piperidin-4-yl)-8-methyl-2-(4-(methylsulfonyl)phenyl)imidazo[1,2-a]pyridine]
Human TLR9
  IC50: 27 nM

## Cc1cc(-c2ccc(N3CCN(C(C)C)CC3)cc2)cn2nc(-c3ccc(S(C)(=O)=O)cc3)nc12 [Example 147, 6-(4-(4-isopropylpiperazin-1-yl)phenyl)-8-methyl-2-(4-(methylsulfonyl)phenyl)-[1,2,4]triazolo[1,5-a]pyridine]
Human TLR9
  IC50: 909 nM

## COc1ccc(-c2nc3c(C)cc(-c4ccc(N5CC6CCC(C5)N6C(C)C)cc4)cn3n2)cc1OC [Example 151, 2-(3,4-dimethoxyphenyl)-6-(4-(8-isopropyl-3,8-diazabicyclo[3.2.1]octan-3-yl)phenyl)-8-methyl-[1,2,4]triazolo[1,5-a]pyridine]
Human TLR9
  IC50: 1370 nM

## CC1CC(c2ccc(N3CCN(C(C)C)CC3)cc2)Cn2nc(-c3ccc(S(C)(=O)=O)cc3)nc21 (stereo not drawn) [Example 150, 6-(4-(4-isopropylpiperazin-1-yl)phenyl)-8-methyl-2-(4-(methylsulfonyl)phenyl)-5,6,7,8-tetrahydro-[1,2,4]triazolo[1,5-a]pyridine]
Human TLR9
  IC50: 20900 nM

## COc1ccc(-c2nc3c(C)cc(C4CCN(C5CCN(C(C)C)CC5)CC4)cn3n2)cc1OC [Example 158, 2-(3,4-dimethoxyphenyl)-6-(1′-isopropyl-[1,4′-bipiperidin]-4-yl)-8-methyl-[1,2,4]triazolo[1,5-a] pyridine]
Human TLR9
  IC50: 152 nM
